Paper PMC11176637 (iScience, 2024)
pIC50: −log10 of the molar value.

Legend:
Assay type in all cases: cell-based
[1] = tested on: VSVΔG-G (vesicular stomatitis virus glycoprotein); assay: microbe, parasite or virus in culture; conditions: for pIC50: Vesicular stomatitis virus, read-out: IC50, VSVΔG pseudotypes: G; for IC50 against VSVΔG-G: 0.3125–40 μM
[2] = tested on: VSVΔG-Sδ (SARS-CoV-2 Delta S glycoprotein); assay: microbe, parasite or virus in culture; conditions: for pIC50: Severe acute respiratory syndrome coronavirus 2, read-out: IC50 against VSVΔG-Sδ
SARS-CoV-2 XBB.1.5 = tested on: SARS-CoV-2 XBB.1.5
SARS-CoV-2 CH.1.1 = tested on: SARS-CoV-2 CH.1.1
[3] = tested on: VSVΔG-SM (MERS-CoV S glycoprotein); conditions: 0.3125–40 μM
[4] = tested on: VSVΔG-Sα (SARS-CoV-2 Alpha S glycoprotein); assay: microbe, parasite or virus in culture; conditions: Severe acute respiratory syndrome coronavirus 2, read-out: IC50 against VSVΔG-Sα
[5] = tested on: SARS-CoV-2 Delta (B.1.617.2)
[6] = tested on: VSVΔG-Sο (SARS-CoV-2 Omicron S glycoprotein); assay: microbe, parasite or virus in culture; conditions: Severe acute respiratory syndrome coronavirus 2, read-out: IC50 against VSVΔG-Sο

Cc1cccc(NC(=O)C[S+]([O-])c2nc(-c3ccccc3)cn2-c2ccc(Cl)cc2)c1C (racemic) [PCM-0282478, 2-((1-(4-chlorophenyl)-4-phenyl-1H-imidazol-2-yl)sulfinyl)-N-(2,3-dimethylphenyl)acetamide]
pIC50 [1]: < 5.00
times more potent than synthesized PCM-0163855 against VSVΔG-Sδ [2]: approximately 10 times
IC50, SARS-CoV-2: XBB.1.5 viral replication (SARS-CoV-2 XBB.1.5): neither inhibited
IC50, SARS-CoV-2: CH.1.1 viral replication (SARS-CoV-2 CH.1.1): neither inhibited

CNC(=O)C(C#N)(Cc1cc(Cl)cc2c1OCOC2)Cc1cc(Cl)cc2c1OCOC2 [PCM-0068389, N-methyl3-(6-chloro-2,4-dihydro-1,3-benzodioxin-8-yl)-2-[(6-chloro-2,4-dihydro-1,3-benzodioxin-8-yl)methyl]-2-cyanopropionamide]
IC50 against VSVΔG-G [1]: some activity
IC50 against VSVΔG-SM [3]: lost all activity

N=C(N)Nc1ccc(C(=O)Oc2ccc3cc(C(=N)N)ccc3c2)cc1 [PCM-0095060, 6-amidino-2-naphthyl p-guanidinobenzoate, reference compound]
IC50 against VSVΔG-G [1]: no significant activity
pIC50 [4]: 6.04
pIC50 [2]: 6.51
inhibition of bona fide SARS-CoV-2 Delta virus replication [5]: failed to inhibit

Cc1cccc(NC(=O)CS(=O)(=O)c2nc(-c3ccccc3)cn2-c2ccc(Cl)cc2)c1C [PCM-0163855, 2-((1-(4-chlorophenyl)-4-phenyl-1H-imidazol-2-yl)sulfonyl)-N-(2,3-dimethylphenyl)acetamide]
pIC50 [1]: < 5.00
IC50 against VSVΔG-SM [3]: inactive
pIC50 [4]: 6.43
pIC50 [2]: 6.35
pIC50 [6]: 4.39
IC50, SARS-CoV-2: XBB.1.5 viral replication (SARS-CoV-2 XBB.1.5): neither inhibited
IC50, SARS-CoV-2: CH.1.1 viral replication (SARS-CoV-2 CH.1.1): neither inhibited

COc1ccc2cc3c(N)nn(C(=O)Cc4c[nH]c5ccccc45)c3nc2c1 [PCM-0166392, 1-{6-amino-12-methoxy-2,4,5-triazatricyclo[7.4.0.0³,⁷]trideca-1,3(7),5,8,10,12-hexaen-4-yl}-2-(3-indolyl)-1-ethanone]
IC50 against VSVΔG-SM [3]: not selective

Nc1nc(Nc2ccccc2)sc1C(=O)c1ccccc1Cl [PCM-0179622, (4-amino-2-anilino-1,3-thiazol-5-yl)(o-chlorophenyl)methanone]
IC50 against VSVΔG-SM [3]: not selective
